{"source": "paper PMC3500388", "about": "(Organic & biomolecular chemistry, 2012)", "key": {"full-length human ERα [1]": {"target": "T1, full-length human ERα (Homo sapiens, UniProt P03372)", "T1 sequence (P03372 1-595)": "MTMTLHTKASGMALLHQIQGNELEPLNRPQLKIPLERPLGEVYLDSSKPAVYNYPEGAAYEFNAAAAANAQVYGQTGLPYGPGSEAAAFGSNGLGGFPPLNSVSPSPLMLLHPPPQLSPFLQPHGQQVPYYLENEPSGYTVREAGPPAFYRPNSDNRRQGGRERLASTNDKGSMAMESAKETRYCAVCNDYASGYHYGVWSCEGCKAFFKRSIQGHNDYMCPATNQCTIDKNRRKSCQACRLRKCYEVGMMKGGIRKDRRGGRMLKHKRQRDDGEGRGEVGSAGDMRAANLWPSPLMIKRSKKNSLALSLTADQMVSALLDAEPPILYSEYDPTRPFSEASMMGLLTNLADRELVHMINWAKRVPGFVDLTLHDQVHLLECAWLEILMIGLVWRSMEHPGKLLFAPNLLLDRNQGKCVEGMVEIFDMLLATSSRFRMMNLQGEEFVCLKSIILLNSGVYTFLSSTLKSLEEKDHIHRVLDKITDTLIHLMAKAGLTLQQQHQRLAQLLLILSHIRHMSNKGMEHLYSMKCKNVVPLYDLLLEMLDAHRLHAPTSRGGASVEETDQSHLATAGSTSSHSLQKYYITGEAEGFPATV", "test": "Luciferase reporter gene assay in HepG2 cells, ERα, agonist mode", "conditions": "for Agonist mode ERα Eff (%E2) / ERα agonist activity / intrinsic activity, in words: HepG2 cells; for Agonist mode ERα Eff (%E2): mean ± s.e.m. as percentage of 10^−7 M E2"}, "full-length human ERβ": {"target": "full-length human ERβ (Homo sapiens, UniProt Q92731)", "sequence (Q92731 whole entry)": "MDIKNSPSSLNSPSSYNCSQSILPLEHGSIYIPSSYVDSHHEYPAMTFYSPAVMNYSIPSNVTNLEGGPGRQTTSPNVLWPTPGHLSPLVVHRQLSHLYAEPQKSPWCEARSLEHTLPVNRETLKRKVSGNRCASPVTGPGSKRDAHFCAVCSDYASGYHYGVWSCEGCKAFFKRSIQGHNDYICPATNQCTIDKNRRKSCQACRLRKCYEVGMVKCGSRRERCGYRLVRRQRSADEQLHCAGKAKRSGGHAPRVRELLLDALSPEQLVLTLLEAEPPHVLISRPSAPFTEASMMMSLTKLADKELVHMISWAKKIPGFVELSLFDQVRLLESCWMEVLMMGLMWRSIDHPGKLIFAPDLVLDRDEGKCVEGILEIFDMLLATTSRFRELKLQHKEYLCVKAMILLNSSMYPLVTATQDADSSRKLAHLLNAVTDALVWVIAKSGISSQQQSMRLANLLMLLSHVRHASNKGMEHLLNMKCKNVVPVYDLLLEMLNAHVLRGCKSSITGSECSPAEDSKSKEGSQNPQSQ", "test": "Luciferase reporter gene assay in HepG2 cells, ERβ, antagonist mode", "assay_type": "cell-based"}, "full-length human ERα [2]": {"target": "T1, full-length human ERα", "test": "Luciferase reporter gene assay in HepG2 cells, ERα, antagonist mode", "assay_type": "cell-based"}, "[3]": {"target": "T2, purified full-length human ERα (Homo sapiens, UniProt P03372)", "T2 sequence (P03372 1-595)": "T1 sequence (P03372 1-595)", "test": "Competitive radiometric binding assay, ERα", "conditions": "estradiol = 100%; 2 nM [3H]estradiol tracer, 18–24 h at 0 °C"}, "[4]": {"target": "purified full-length human ERβ (Homo sapiens, UniProt Q92731)", "sequence (Q92731 whole entry)": "as above", "test": "Competitive radiometric binding assay, ERβ", "conditions": "estradiol = 100%; 2 nM [3H]estradiol tracer, 18–24 h at 0 °C"}, "HEC-1 cells": {"test_system": "HEC-1 cells", "conditions": "cited from earlier work"}}, "note": "Where “and” joins values, the source holds several entries; their conditions need not be identical. Equal values may be shown once."}
{"smiles": "CCN(c1ccc(Cl)cc1)S(=O)(=O)C1CC2OC1C(c1ccc(O)cc1)=C2c1ccc(O)cc1", "note": "(stereo not shown) [Compound 11l, N-(4-Chlorophenyl)-N-ethyl-5,6-bis(4-hydroxyphenyl)-7-oxabicyclo[2.2.1]hept-5-ene-2-sulfonamide]", "values": [{"measurement": "Agonist mode ERα Eff (%E2)", "setting": "full-length human ERα [1]", "value": "1 ± 1", "unit": "%E2"}]}
{"smiles": "CN(c1ccccc1)S(=O)(=O)C1CC2OC1C(c1ccc(O)cc1)=C2c1ccc(O)cc1", "note": "(stereo not shown) [Compound 11e, 5,6-Bis(4-hydroxyphenyl)-N-methyl-N-phenyl-7-oxabicyclo-[2.2.1]hept-5-ene-2-sulfonamide]", "values": [{"measurement": "Agonist mode ERα Eff (%E2)", "setting": "full-length human ERα [1]", "value": "31 ± 3", "unit": "%E2"}, {"measurement": "IC50", "setting": "full-length human ERβ; read-out: Antagonist mode ERβ IC50, HepG2 cells, in the presence of 10^−8 M E2", "value": 10, "unit": "nM"}, {"measurement": "IC50", "setting": "full-length human ERα [2]; read-out: Antagonist mode ERα IC50, in the presence of 10^−8 M E2", "value": 740, "unit": "nM"}]}
{"smiles": "C[C@]12CC[C@@H]3c4ccc(O)cc4C[C@@H](CCCCCCCCC[S+]([O-])CCCC(F)(F)C(F)(F)F)[C@H]3[C@@H]1CC[C@@H]2O", "note": "(stereo partly shown) [Fulvestrant, fulvestrant, reference compound]", "values": [{"measurement": "Agonist mode ERα Eff (%E2)", "setting": "full-length human ERα [1]", "value": "1 ± 1", "unit": "%E2"}, {"measurement": "ERβ profile / intrinsic activity, in words", "setting": "full-length human ERβ; HepG2 cells", "value": "full antagonist"}, {"measurement": "ERα antagonist profile, in words", "setting": "full-length human ERα [2]", "value": "full antagonist"}]}
{"smiles": "CN(c1ccccc1Cl)S(=O)(=O)C1CC2OC1C(c1ccc(O)cc1)=C2c1ccc(O)cc1", "note": "(stereo not shown) [Compound 11g, N-(2-Chlorophenyl)-5,6-bis(4-hydroxyphenyl)-N-methyl-7-oxabicyclo[2.2.1]hept-5-ene-2-sulfonamide]", "values": [{"measurement": "relative binding affinity (RBA) for ERα", "setting": "[3]", "value": "7.17% and 7.2%"}, {"measurement": "relative binding affinity (RBA) for ERβ", "setting": "[4]", "value": "1.59% and 1.6%"}, {"measurement": "EC50", "setting": "full-length human ERα [1]", "value": 8, "unit": "nM"}, {"measurement": "Agonist mode ERα Eff (%E2)", "setting": "full-length human ERα [1]", "value": "33 ± 1", "unit": "%E2"}]}
{"smiles": "O=S(=O)(Nc1ccccc1)C1CC2OC1C(c1ccc(O)cc1)=C2c1ccc(O)cc1", "note": "(stereo not shown) [Compound 11a, 5,6-Bis(4-hydroxyphenyl)-N-phenyl-7-oxabicyclo[2.2.1]hept-5-ene-2-sulfonamide]", "values": [{"measurement": "EC50", "setting": "full-length human ERα [1]", "value": 100, "unit": "nM"}, {"measurement": "Agonist mode ERα Eff (%E2)", "setting": "full-length human ERα [1]", "value": "78 ± 1", "unit": "%E2"}]}
{"smiles": "O=S(=O)(Nc1ccc(Cl)cc1)C1CC2OC1C(c1ccc(O)cc1)=C2c1ccc(O)cc1", "note": "(stereo not shown) [Compound 11d, N-(4-Chlorophenyl)-5,6-bis(4-hydroxyphenyl)-7-oxabicyclo-[2.2.1]hept-5-ene-2-sulfonamide]", "values": [{"measurement": "Agonist mode ERα Eff (%E2)", "setting": "full-length human ERα [1]", "value": "42 ± 3", "unit": "%E2"}]}
{"smiles": "O=S(=O)(Nc1ccccc1Cl)C1CC2OC1C(c1ccc(O)cc1)=C2c1ccc(O)cc1", "note": "(stereo not shown) [Compound 11c, N-(2-Chlorophenyl)-5,6-bis(4-hydroxyphenyl)-7-oxabicyclo-[2.2.1]hept-5-ene-2-sulfonamide]", "values": [{"measurement": "EC50", "setting": "full-length human ERα [1]", "value": 200, "unit": "nM"}, {"measurement": "Agonist mode ERα Eff (%E2)", "setting": "full-length human ERα [1]", "value": "81 ± 4", "unit": "%E2"}]}
{"smiles": "CCN(c1ccccc1Cl)S(=O)(=O)C1CC2OC1C(c1ccc(O)cc1)=C2c1ccc(O)cc1", "note": "(stereo not shown) [Compound 11k, N-(2-Chlorophenyl)-N-ethyl-5,6-bis(4-hydroxyphenyl)-7-oxabicyclo[2.2.1]hept-5-ene-2-sulfonamide]", "values": [{"measurement": "Agonist mode ERα Eff (%E2)", "setting": "full-length human ERα [1]", "value": "13 ± 1", "unit": "%E2"}]}
{"smiles": "CCN(c1ccccc1)S(=O)(=O)C1CC2OC1C(c1ccc(O)cc1)=C2c1ccc(O)cc1", "note": "(stereo not shown) [Compound 11i, N-Ethyl-5,6-bis(4-hydroxyphenyl)-N-phenyl-7-oxabicyclo-[2.2.1]hept-5-ene-2-sulfonamide]", "values": [{"measurement": "ERα agonist activity / intrinsic activity, in words", "setting": "full-length human ERα [1]", "value": "low efficacy compound"}, {"measurement": "Agonist mode ERα Eff (%E2)", "setting": "full-length human ERα [1]", "value": "11 ± 1", "unit": "%E2"}]}
{"smiles": "CCN(c1ccc(OC)cc1)S(=O)(=O)C1CC2OC1C(c1ccc(O)cc1)=C2c1ccc(O)cc1", "note": "(stereo not shown) [Compound 11j, N-Ethyl-5,6-bis(4-hydroxyphenyl)-N-(4-methoxyphenyl)-7-oxabicyclo[2.2.1]hept-5-ene-2-sulfonamide]", "values": [{"measurement": "ERα agonist activity / intrinsic activity, in words", "setting": "full-length human ERα [1]", "value": "as low as that for fulvestrant"}, {"measurement": "Agonist mode ERα Eff (%E2)", "setting": "full-length human ERα [1]", "value": "3 ± 1", "unit": "%E2"}, {"measurement": "ERβ profile / intrinsic activity, in words", "setting": "full-length human ERβ; HepG2 cells", "value": "as low as that for fulvestrant"}]}
{"smiles": "O=S(=O)(C1CC2OC1C(c1ccc(O)cc1)=C2c1ccc(O)cc1)N(CC(F)(F)F)c1ccc(Cl)cc1", "note": "(stereo not shown) [Compound 11o, N-(4-Chlorophenyl)-5,6-bis(4-hydroxyphenyl)-N-(2,2,2-trifluoroethyl)-7-oxabicyclo[2.2.1]hept-5-ene-2-sulfonamide]", "values": [{"measurement": "Agonist mode ERα Eff (%E2)", "setting": "full-length human ERα [1]", "value": "3 ± 3", "unit": "%E2"}]}
{"smiles": "CC/C(=C(\\c1ccc(O)cc1)c1ccc(OCCN(C)C)cc1)c1ccccc1", "note": "[4-OH TAM, 4-OH tamoxifen, reference compound]", "values": [{"measurement": "Antagonist mode ERβ Eff (%E2)", "setting": "full-length human ERβ", "value": "−20 ± 2", "unit": "%E2"}]}
{"smiles": "O=S(=O)(Oc1ccccc1)[C@H]1C[C@H]2O[C@@H]1C(c1ccc(O)cc1)=C2c1ccc(O)cc1", "note": "[OBHS, exo-5,6-bis-(4-hydroxyphenyl)-7-oxabicyclo[2.2.1]hept-5-ene-2-sulfonic acid phenyl ester]", "values": [{"measurement": "profile in HEC-1 cells, in words", "setting": "HEC-1 cells", "value": "full antagonist"}]}
